Source: patent publication EP0482594A1, “Tylosin derivative and method for preparing the same” (MERCIAN CORPORATION, priority 1990, dated 1992)
Converted amounts (≈) assume the structure as drawn. Like-named read-outs stand apart in the source and are kept apart here.

How the values were obtained:
mouse bone marrow cells = experiment: Inhibition of the colony formation of mouse bone marrow cells; assay type: cell-based; details: for Number of colonies Average: 1.0 μg/ml (control average 75.3); for activity at 1 µg/mL: Mus musculus, Bone marrow cell; for Number of colonies 1: count 1 (control 95); for Number of colonies 2: count 2 (control 66)
ML-resistant strain = experiment: Antibacterial activity, agar-dilution method (Mueller Hinton agar); assay type: cell-based, Staphylococcus aureus; details: macrolide resistant strain; for MIC: Staphylococcus aureus, read-out: minimum inhibitory concentrations (MICs)
Protocol: (§1) Antibacterial activity of the tylosin derivative of the present invention was determined by the agar- dilution method using a Mueller Hinton agar medium (Difco). The results obtained are summarized in Table 1 in which minimum inhibitory concentrations (MICs, ug/ml) are shown. Hereinafter in the specification, Compound A (the compound described in Example 3) is defined as being 4"-O-[(S)-(+)-p-methoxymandeloyl]tylosin represented by the following formula: [drawing 3] wherein R is the same as that defined above; Compound B (the compound described in Example 2) is defined as being 4"-O-[(R)-(-)-p-methoxymandeloyl]tylosin represented by the following formula: [drawing 4] wherein R is the same as that defined above; XV represents 4"-O-[p-methoxyphenylacetyl]tylosin; RKM represents rokitamycin; and EM represents erythromycin.

[1] = tested on: Staphylococcus epidermidis ATCC 12228; experiment: as above; assay type: cell-based; details: for MIC: Staphylococcus epidermidis; for minimum inhibitory concentrations (MICs): Staphylococcus epidermidis ATCC 12228
Protocol: as §1

Escherichia coli K12 = experiment: as above; assay type: cell-based; details: for MIC: read-out: minimum inhibitory concentrations (MICs)
Protocol: as §1

[2] = tested on: Bacillus subtilis ATCC 6633; experiment: as above; assay type: cell-based
Protocol: as §1

[3] = tested on: Staphylococcus aureus Smith; experiment: as above; assay type: cell-based; details: for MIC: read-out: minimum inhibitory concentrations (MICs)
Protocol: as §1

[4] = tested on: Staphylococcus aureus 209P; experiment: as above; assay type: cell-based; details: for MIC: read-out: minimum inhibitory concentrations (MICs)
Protocol: as §1

[5] = Stability test using mouse liver homogenate; assay type: in vitro ADME, ICR mouse; details: for Remaining unhydrolyzed substance (%): after being treated with liver homogenate for 60 minutes at 37 C
Protocol: A liver in collected from an ICR mouse was homogenized by a Potter homogenizer in five times volume of 0.1 M phosphate buffer solution (pH 7.2), and supernatant was obtained by centrifuging the homogenate at 3000 rpm for 10 minutes. To 2 ml of the supernatant obtained above, 2 ml of sample solution containing 500 µg/ml of test compound in 20% aqueous methanol and 1 ml of 0.1 M phosphate buffer solution were added, and the mixture was incubated at 37 ^0 c for 60 minutes and then 1 ml of the mixture was heated at 85 ° C for 3 minutes. The reaction mixture was adjusted to pH 9.0 by adding 1 N NaOH and extracted with 1 ml of ethyl acetate.

[6] = tested on: Mouse leukemia L1210 cells; experiment: Inhibitory activity on the growth of L1210 cells; assay type: cell-based; details: for IC50: L1210 cell growth
Protocol: Mouse leukemia L1210 cells were cultured in RPM11640 medium (Gifco) containing 10% horse serum (Gifco) at 37°C under 5% carbon dioxide gas so that the leukemia cells were contained in the amount of 5 x 10^4 cells/ml, and the cells were subjected to passage culture every two or three days to maintain the cell density of 5 x 10^4 cells/ml. The diluted sample solution (0.1 ml) was added to each well of a 24-well plate which contained 0.9 ml of the cultured L1210 cells, and the mixture was incubated at 37 ° C for 48 hours under 5% carbon dioxide gas. The sample solution mentioned above was prepared by dissolving a weighed test compound in dimethyl sulfoxide (DMSO) at the concentration of 100 mg/ml and then diluting the solution with distilled water so that the concentration became 10 mg/ml. The resulting aqueous solution was diluted with phosphate buffer solution to obtain a sample solution at a desired concentration. After incubation, the cell numbers in each well were counted and inhibitory activity on cell growth (ICso) was calculated.

[7] = 1.0 μg/ml, relative to control = 100
[8] = ATCC12228, Staphylococcus epidermidis ATCC 12228, read-out: minimum inhibitory concentrations (MICs)
[9] = ATCC6633, Bacillus subtilis ATCC 6633, read-out: minimum inhibitory concentrations (MICs)

Compound	Number of colonies Average (mouse bone marrow cells)	activity at 1 µg/mL (mouse bone marrow cells; [7]) [%]	MIC (ML-resistant strain; 1st listed (Table 1 r5)) [µg/mL]	MIC (ML-resistant strain; 2nd listed (Table 1 r6)) [µg/mL]	MIC (ML-resistant strain; 3rd listed (Table 1 r7)) [µg/mL]	MIC (ML-resistant strain; 4th listed (Table 1 r8)) [µg/mL]	MIC (ML-resistant strain; 5th listed (Table 1 r9)) [µg/mL]	MIC [1, 8] [µg/mL]	MIC (Escherichia coli K12) [µg/mL]	MIC [2, 9] [µg/mL]	MIC ([3]; Staphylococcus aureus Smith) [µg/mL]	MIC ([4]; Staphylococcus aureus 209P) [µg/mL]	Number of colonies 1 (mouse bone marrow cells; 1.0 μg/ml)	minimum inhibitory concentrations (MICs) (ML-resistant strain; 1st listed (Table 1 r5)) [µg/mL]	minimum inhibitory concentrations (MICs) (ML-resistant strain; 2nd listed (Table 1 r6)) [µg/mL]	minimum inhibitory concentrations (MICs) (ML-resistant strain; 3rd listed (Table 1 r7)) [µg/mL]	minimum inhibitory concentrations (MICs) (ML-resistant strain; 4th listed (Table 1 r8)) [µg/mL]	minimum inhibitory concentrations (MICs) (ML-resistant strain; 5th listed (Table 1 r9)) [µg/mL]	minimum inhibitory concentrations (MICs) [1] [µg/mL]	Inhibitory activity on cell growth (%) ([6]; 10 μg/ml, 48 hours)	also measured
CCCC(=O)O[C@H]1[C@H](C)O[C@@H](O[C@H]2[C@H](N(C)C)[C@@H](O)[C@H](O[C@H]3[C@@H](CC=O)C[C@@H](C)[C@@H](O)/C=C/C=C/C[C@@H](C)OC(=O)C[C@@H](O)[C@@H]3OC)O[C@@H]2C)C[C@@]1(C)OC(=O)CC [RKM, rokitamycin]	19.0	25.2	> 100	> 100	> 100	< 0.2	> 100	< 0.2	100 (≈ 121 µM)	0.1 (≈ 0.121 µM)	0.39 (≈ 0.471 µM)	0.2 (≈ 0.242 µM)									Number of colonies 3 (mouse bone marrow cells; 1.0 μg/ml, count 3 (control 65)): 19
4"-O-[p-methoxyphenylacetyl]tylosin [XV]	13.0												13	6.25	0.78	3.13	0.39	1.56	0.78	82.87	Remaining unhydrolyzed substance (%) [5]: 92.8%; Colony formation (%) (mouse bone marrow cells; [7]): 17.3%; minimum inhibitory concentrations (MICs) (Escherichia coli K12): > 100 µg/mL; minimum inhibitory concentrations (MICs) ([2]; Bacillus subtilis ATCC 6633): 0.39 µg/mL; minimum inhibitory concentrations (MICs) ([3]; Staphylococcus aureus Smith): 1.56 µg/mL; minimum inhibitory concentrations (MICs) ([4]; Staphylococcus aureus 209P): 0.20 µg/mL; Inhibitory activity on cell growth (%) ([6]; 1 μg/ml, 48 hours): 12.22%; Inhibitory activity on cell growth (%) ([6]; 3 μg/ml, 48 hours): 31.18%; Inhibitory activity on cell growth (%) ([6]; 30 μg/ml, 48 hours): 90.45%; Inhibitory activity on cell growth (%) ([6]; 100 μg/ml, 48 hours): 93.68%; IC50 ([6]; 48 hours): 5.01 µg/mL
CCC1OC(=O)CC(O)C(C)C(OC2OC(C)C(OC3CC(C)(O)C(OC(=O)C(O)c4ccc(OC)cc4)C(C)O3)C(N(C)C)C2O)C(CC=O)CC(C)C(=O)C=CC(C)=CC1COC1OC(C)C(O)C(OC)C1OC [Compound A, 4"-O-[(S)-(+)-p-methoxymandeloyl]tylosin]	31.0	41.2	6.25 (≈ 5.79 µM)	0.39 (≈ 0.361 µM)	6.25 (≈ 5.79 µM)	< 0.2		0.39 (≈ 0.361 µM)	> 100	0.39 (≈ 0.361 µM)	1.56 (≈ 1.44 µM)	0.39 (≈ 0.361 µM)	32					6.25 (≈ 5.79 µM)		5.62	remaining at 1 h ([5]; mouse, liver homogenate, pH 7.2, after being treated with liver homogenate for 60 minutes at 37 C, read-out: Remaining unhydrolyzed substance (%)): 97.8%; Number of colonies 2 (mouse bone marrow cells; 1.0 μg/ml): 30; inhibition at 1 µg/mL ([6]; Mus musculus, L1210, 48 h, 1 μg/ml, read-out: Inhibitory activity on cell growth (%)): 0%; inhibition at 3 µg/mL ([6]; Mus musculus, L1210, 48 h, 3 μg/ml, read-out: Inhibitory activity on cell growth (%)): 0%; inhibition at 30 µg/mL ([6]; Mus musculus, L1210, 48 h, 30 μg/ml, read-out: Inhibitory activity on cell growth (%)): 47.8%; inhibition at 100 µg/mL ([6]; Mus musculus, L1210, 48 h, 100 μg/ml, read-out: Inhibitory activity on cell growth (%)): 88.8%; IC50 ([6]; Mus musculus, L1210, 48 h, read-out: IC50): 36.6 µg/mL (≈ 33.9 µM)
CC[C@H]1OC(=O)[C@H](C)[C@@H](O[C@H]2C[C@@](C)(OC)[C@@H](O)[C@H](C)O2)[C@H](C)[C@@H](O[C@@H]2O[C@H](C)C[C@H](N(C)C)[C@H]2O)[C@](C)(O)C[C@@H](C)C(=O)[C@H](C)[C@@H](O)[C@]1(C)O [EM, erythromycin]			> 100	> 100	> 100	> 100	> 100		50 (≈ 68.1 µM)												MIC ([1]; ATCC12228, read-out: minimum inhibitory concentrations (MICs)): < 0.2 µg/mL; MIC ([2]; Bacillus subtilis, ATCC6633, read-out: minimum inhibitory concentrations (MICs)): 0.1 µg/mL (≈ 0.136 µM); MIC ([3]; Staphylococcus aureus): 0.2 µg/mL (≈ 0.273 µM); MIC ([4]; Staphylococcus aureus, 209P): 0.1 µg/mL (≈ 0.136 µM)
CCC1OC(=O)CC(O)C(C)C(OC2OC(C)C(OC3CC(C)(O)C(OC(=O)C(O)c4ccc(OC)cc4)C(C)O3)C(N(C)C)C2O)C(CC=O)CC(C)C(=O)C=CC(C)=CC1COC1OC(C)C(O)C(OC)C1OC [Compound B, 4"-O-[(R)-(-)-p-methoxymandeloyl]tylosin]	29.5												34	6.25 (≈ 5.79 µM)	0.39 (≈ 0.361 µM)	3.13 (≈ 2.9 µM)	< 0.20	1.56 (≈ 1.44 µM)	0.78 (≈ 0.722 µM)	13.48	Remaining unhydrolyzed substance (%) ([5]; 60 min): 100%; Number of colonies 2 (mouse bone marrow cells; 1.0 μg/ml): 25; minimum inhibitory concentrations (MICs) (Escherichia coli K12): > 100 µg/mL; minimum inhibitory concentrations (MICs) ([2]; Bacillus subtilis ATCC 6633): 0.39 µg/mL (≈ 0.361 µM); minimum inhibitory concentrations (MICs) ([3]; Staphylococcus aureus Smith): 1.56 µg/mL (≈ 1.44 µM); minimum inhibitory concentrations (MICs) ([4]; Staphylococcus aureus 209P): 0.39 µg/mL (≈ 0.361 µM); Inhibitory activity on cell growth (%) ([6]; 1 μg/ml, 48 hours): 0%; Inhibitory activity on cell growth (%) ([6]; 3 μg/ml, 48 hours): 0%; Inhibitory activity on cell growth (%) ([6]; 30 μg/ml, 48 hours): 41.43%; Inhibitory activity on cell growth (%) ([6]; 100 μg/ml, 48 hours): 87.22%; IC50 ([6]; 48 hours): 32.99 µg/mL (≈ 30.5 µM)
